Columns and labels:
Aβtotal [1] = assay: Screening for γ-secretase-modulating activity in SKNBE2 cells carrying APP 695 wild type: Aβtotal in cell supernatant (Alphalisa); format: cell-based; conditions: overnight incubation
How it was run: (§1)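 SKNBE2 cells expressing wild-type APP695 were incubated overnight at 37° C with test compound at several concentrations. Aβ42 and Aβtotal in supernatant were measured by AlphaLISA sandwich immunoassays. IC50 came from 4-parameter non-linear fits of percent of compound-free control versus log concentration.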

Aβtotal [2] = assay: In vivo efficacy: Aβtotal in brain of non-transgenic mice after single oral dose (ELISA); set-up: species or system mouse; conditions: dose 30 mg/kg oral dosing, soluble brain fraction, animals sacrificed after 4 h, untreated animals (Ctrl) set at 100; for response vs control in vivo at 30 mg/kg: Mus musculus, read-out: Aβtotal (% vs Ctrl)_Mean
Source text: (§2) To determine whether acute administration of an Aβ42 lowering agent would reduce Aβ42 levels in vivo, non-transgenic rodents, e.g. mice or rats were used. Animals treated with the Aβ42 lowering agent were examined and compared to those untreated or treated with vehicle and brain levels of soluble Aβ42 and total Aβ were quantitated by standard techniques, for example, using ELISA. Treatment periods varied from hours (h) to days and were adjusted based on the results of the Aβ42 lowering once a time course of onset of effect could be established.
(§3) A typical protocol for measuring Aβ42 lowering in vivo is shown but it is only one of many variations that could be used to optimize the levels of detectable Aβ. For example, Aβ42 lowering compounds were formulated in 20% of Captisol® (a sulfobutyl ether of β-cyclodextrin) in water or 20% hydroxypropyl β cyclodextrin. The Aβ42 lowering agents were administered as a single oral dose or by any acceptable route of administration to overnight fasted animals. After 4 h, the animals were sacrificed and Aβ42 levels were analysed.
(§4) Blood was collected by decapitation and exsanguinations in EDTA-treated collection tubes. Blood was centrifuged at 1900 g for 10 minutes (min) at 4° C. and the plasma recovered and flash frozen for later analysis. The brain was removed from the cranium and hindbrain. The cerebellum was removed and the left and right hemisphere were separated. The left hemisphere was stored at −18° C. for quantitative analysis of test compound levels. The right hemisphere was rinsed with phosphate-buffered saline (PBS) buffer and immediately frozen on dry ice and stored at −80° C. until homogenization for biochemical assays.
(§5) Mouse brains from non-transgenic animals were resuspended in 8 volumes of 0.4% DEA (diethylamine)/50 mM NaCl containing protease inhibitors (Roche-11873580001 or 04693159001) per gram of tissue, e.g. for 0.158 g brain, add 1.264 ml of 0.4% DEA. All samples were homogenized in the FastPrep-24 system (MP Biomedicals) using lysing matrix D (MPBio #6913-100) at 6 m/s for 20 seconds. Homogenates were centrifuged at 221.300×g for 50 min. The resulting high speed supernatants were then transferred to fresh eppendorf tubes. Nine parts of supernatant were neutralized with 1 part 0.5 M Tris-HCl pH 6.8 and used to quantify Aβtotal and Aβ42.
(§6) To quantify the amount of Aβtotal and Aβ42 in the soluble fraction of the brain homogenates, Enzyme-Linked-Immunosorbent-Assays were used. Briefly, the standards (a dilution of synthetic Aβ1-40 and Aβ1-42, Bachem) were prepared in 1.5 ml Eppendorf tube in Ultraculture, with final concentrations ranging from 10000 to 0.3 pg/ml. The samples and standards were co-incubated with HRPO-labelled N-terminal antibody for Aβ42 detection and with the biotinylated mid-domain antibody 4G8 for Aβtotal detection. 50 μl of conjugate/sample or conjugate/standards mixtures were then added to the antibody-coated plate (the capture antibodies selectively recognize the C-terminal end of Aβ42, antibody JRF/cAβ42/26, for Aβ42 detection and the N-terminus of Aβ, antibody JRF/rAβ/2, for Aβtotal detection). The plate was allowed to incubate overnight at 4° C. in order to allow formation of the antibody-amyloid complex. Following this incubation and subsequent wash steps the ELISA for Aβ42 quantification was finished by addition of Quanta Blu fluorogenic peroxidase substrate according to the manufacturer's instructions (Pierce Corp., Rockford, Il). A reading was performed after 10 to 15 min (excitation 320 nm/emission 420 nm).
For Aβtotal detection, a Streptavidine-Peroxidase-Conjugate was added, followed 60 min later by an additional wash step and addition of Quanta Blu fluorogenic peroxidase substrate according to the manufacturer's instructions (Pierce Corp., Rockford, Ill). A reading was performed after 10 to 15 min (excitation 320 nm/emission 420 nm). […]

Aβ42 [3] = assay: Screening for γ-secretase-modulating activity in SKNBE2 cells carrying APP 695 wild type: Aβ42 in cell supernatant (Alphalisa); format: cell-based; conditions: overnight incubation
How it was run: as §1

Aβ42 [4] = assay: In vivo efficacy: Aβ42 lowering in brain of non-transgenic mice after single oral dose (ELISA); set-up: species or system mouse; conditions: dose 30 mg/kg oral dosing, soluble brain fraction, animals sacrificed after 4 h, untreated animals (Ctrl) set at 100; for response vs control in vivo at 30 mg/kg: Mus musculus, read-out: Aβ42 (% vs Ctrl) _Mean
Source text: as §2, §3, §4, §5, §6
In this model at least 20% Aβ42 lowering compared to untreated animals would be advantageous.
The results are shown in Table 4 (dose 30 mg/kg oral dosing) (value for untreated animals as control (Ctrl) was set at 100): […]

[5] = Homo sapiens, SKNBE2, SKNBE2 cells carrying APP 695 wild type
[6] = SKNBE2 cells carrying APP 695 wild type

Row | Structure (SMILES) | IC50 (Aβtotal [1]; Homo sapiens) [nM] | melting point [°C] | IC50 (Aβ42 [3]; [5]) [nM] | IC50 (Aβtotal [1]) [nM] | IC50 (Aβ42 [3]; [6]) [nM] | response vs control in vivo at 30 mg/kg (Aβtotal [2]) [%] | response vs control in vivo at 30 mg/kg (Aβ42 [4]) [%] | Aβtotal (% vs Ctrl)_Mean (Aβtotal [2]) [% vs Ctrl] | Aβ42 (% vs Ctrl) _Mean (Aβ42 [4]) [% vs Ctrl]
1 | COc1cc(Nc2nc3n(n2)CCCC3c2ccccc2Cl)ccc1-c1ccnc(C)c1 (stereo not shown) [Compound 78] |  | 169 |  | > 10000 | 32 | 103 | 46 |  | 
2 | COc1cc(Nc2nc3n(n2)CCCC3c2ccc(F)cc2F)ccc1-c1ccnc(C)c1 (stereo not shown) [Compound 82, 8-(2,4-difluorophenyl)-5,6,7,8-tetrahydro-N-[3-methoxy-4-(2-methyl-4-pyridinyl)phenyl]-[1,2,4]triazolo[1,5-a]pyridin-2-amine] | > 10000 | 192.7 | 39 |  |  | 89 | 47 |  | 
3 | COc1cc(Nc2nc3n(n2)CCOC3c2ccccc2Cl)ccc1-c1ccnc(C)c1 (stereo not shown) [Compound 87, 8-(2-chlorophenyl)-5,6-dihydro-N-[3-methoxy-4-(2-methyl-4-pyridinyl)phenyl]-8H-[1,2,4]triazolo[5,1-c][1,4]oxazin-2-amine] | > 10000 | 181.3 | 35 |  |  | 89 | 48 |  | 
4 | Cc1cc(-c2ccc(Nc3nc4n(n3)CCCC4c3ccc(F)cc3C)cc2)ccn1 (stereo not shown) [Compound 90, 8-(4-fluoro-2-methylphenyl)-5,6,7,8-tetrahydro-N-[4-(2-methyl-4-pyridinyl)phenyl]-[1,2,4]triazolo[1,5-a]pyridin-2-amine] | > 10000 | 153.9 | 56 |  |  | 83 | 38 |  | 
5 | COc1ccc(C2CCCn3nc(Nc4ccc(-c5ccnc(C)c5)cc4)nc32)cc1F.Cl.O (stereo not shown) [Compound 105, 8-(3-fluoro-4-methoxyphenyl)-5,6,7,8-tetrahydro-N-[4-(2-methyl-4-pyridinyl)phenyl]-[1,2,4]triazolo[1,5-a]pyridin-2-amine.1.6HCl.2.4H2O] |  |  |  | > 10000 | 56 |  |  | 99 | 51
6 | COc1cc(F)cc(C2CCCn3nc(Nc4ccc(-c5ccnc(C)c5)cc4)nc32)c1 (stereo not shown) [Compound 185, 8-(3-fluoro-5-methoxyphenyl)-5,6,7,8-tetrahydro-N-[4-(2-methyl-4-pyridinyl)phenyl]-[1,2,4]triazolo[1,5-a]pyridin-2-amine] | > 10000 | 175.1 | 28 |  |  | 96 | 52 |  | 

Now from value to molecule, other results behind:

Row | IC50 (Aβtotal [1]; Homo sapiens) [nM] | melting point [°C] | IC50 (Aβ42 [3]; [5]) [nM] | IC50 (Aβtotal [1]) [nM] | IC50 (Aβ42 [3]; [6]) [nM] | Structure (SMILES) | response vs control in vivo at 30 mg/kg (Aβtotal [2]) [%] | response vs control in vivo at 30 mg/kg (Aβ42 [4]) [%] | Aβtotal (% vs Ctrl)_Mean (Aβtotal [2]) [% vs Ctrl] | Aβ42 (% vs Ctrl) _Mean (Aβ42 [4]) [% vs Ctrl]
7 | > 10000 | 195.5 | 19 |  |  | COc1cc(Nc2nc3c(-c4ccccc4C(F)(F)F)cccn3n2)ccc1-n1cnc(C)n1 [Compound 3, N-[3-methoxy-4-(3-methyl-1H-1,2,4-triazol-1-yl)phenyl]-8-[2-(trifluoromethyl)phenyl]-[1,2,4]triazolo[1,5-a]pyridin-2-amine] | 95 | 75 |  | 
8 | 5130 | 195 | 16 |  |  | COc1cc(Nc2nc3n(n2)CCC[C@@H]3c2ccccc2Cl)ccc1-n1cnc(C)c1 [Compound 28, (8R)-8-(2-chlorophenyl)-5,6,7,8-tetrahydro-N-[3-methoxy-4-(4-methyl-1H-imidazol-1-yl)phenyl]-[1,2,4]triazolo[1,5-a]pyridin-2-amine] | 93 | 81 |  | 
9 | > 10000 | 193.2 | 25 |  |  | COc1cc(Nc2nc3n(n2)CCC[C@H]3c2ccccc2Cl)ccc1-n1cnc(C)c1 [Compound 29, (8S)-8-(2-chlorophenyl)-5,6,7,8-tetrahydro-N-[3-methoxy-4-(4-methyl-1H-imidazol-1-yl)phenyl]-[1,2,4]triazolo[1,5-a]pyridin-2-amine] | 98 | 99 |  | 
10 | 5750 | 187.9 | 13 |  |  | COc1cc(Nc2nc3n(n2)CCCC3c2ccccc2C(F)(F)F)ccc1-n1cnc(C)c1 (stereo not shown) [Compound 31, 5,6,7,8-tetrahydro-N-[3-methoxy-4-(4-methyl-1H-imidazol-1-yl)phenyl]-8-[2-(trifluoromethyl)phenyl]-[1,2,4]triazolo[1,5-a]pyridin-2-amine] | 96 | 83 |  | 
11 | > 10000 | 227.2 | 28 |  |  | Cc1cc(-c2ccc(Nc3nc4n(n3)CCCC4c3ccccc3Cl)cc2)ccn1 (stereo not shown) [Compound 41, 8-(2-chlorophenyl)-5,6,7,8-tetrahydro-N-[4-(2-methyl-4-pyridinyl)phenyl]-[1,2,4]triazolo[1,5-a]pyridin-2-amine] | 102 | 54 |  | 
12 | > 10000 | 193.7 | 69 |  |  | Cc1cc(-c2ccc(Nc3nc4n(n3)CCCC4c3ccc(F)cc3F)cc2)ccn1 (stereo not shown) [Compound 81, 8-(2,4-difluorophenyl)-5,6,7,8-tetrahydro-N-[4-(2-methyl-4-pyridinyl)phenyl]-[1,2,4]triazolo[1,5-a]pyridin-2-amine] | 84 | 41 |  | 
13 | 8510 | 161.4 | 25 |  |  | COc1cc(Nc2nc3n(n2)CCCC3c2ccc(F)cc2C)ccc1-c1ccnc(C)c1 (stereo not shown) [Compound 91, 8-(4-fluoro-2-methylphenyl)-5,6,7,8-tetrahydro-N-[3-methoxy-4-(2-methyl-4-pyridinyl)phenyl]-[1,2,4]triazolo[1,5-a]pyridin-2-amine] | 92 | 51 |  | 
